# Measured values as given in patent US20200199136A1, “PIKFYVE KINASE INHIBITORS” (ACURASTEM INC., priority 2017, published 2020).
# Target: PIKFYVE (Homo sapiens, UniProt Q9Y2I7)
# Assay: PIKFYVE assay (luciferase ADP-Glo kinase assay, Promega)
# Format: biochemical
# Description: The activity of Compounds 1-20 was measured using a PIKFYVE assay (luciferase ADP-Glo kinase assay available from Promega Corp. of Madison, Wis.).
# PIKFYVE, sequence (Q9Y2I7 whole entry): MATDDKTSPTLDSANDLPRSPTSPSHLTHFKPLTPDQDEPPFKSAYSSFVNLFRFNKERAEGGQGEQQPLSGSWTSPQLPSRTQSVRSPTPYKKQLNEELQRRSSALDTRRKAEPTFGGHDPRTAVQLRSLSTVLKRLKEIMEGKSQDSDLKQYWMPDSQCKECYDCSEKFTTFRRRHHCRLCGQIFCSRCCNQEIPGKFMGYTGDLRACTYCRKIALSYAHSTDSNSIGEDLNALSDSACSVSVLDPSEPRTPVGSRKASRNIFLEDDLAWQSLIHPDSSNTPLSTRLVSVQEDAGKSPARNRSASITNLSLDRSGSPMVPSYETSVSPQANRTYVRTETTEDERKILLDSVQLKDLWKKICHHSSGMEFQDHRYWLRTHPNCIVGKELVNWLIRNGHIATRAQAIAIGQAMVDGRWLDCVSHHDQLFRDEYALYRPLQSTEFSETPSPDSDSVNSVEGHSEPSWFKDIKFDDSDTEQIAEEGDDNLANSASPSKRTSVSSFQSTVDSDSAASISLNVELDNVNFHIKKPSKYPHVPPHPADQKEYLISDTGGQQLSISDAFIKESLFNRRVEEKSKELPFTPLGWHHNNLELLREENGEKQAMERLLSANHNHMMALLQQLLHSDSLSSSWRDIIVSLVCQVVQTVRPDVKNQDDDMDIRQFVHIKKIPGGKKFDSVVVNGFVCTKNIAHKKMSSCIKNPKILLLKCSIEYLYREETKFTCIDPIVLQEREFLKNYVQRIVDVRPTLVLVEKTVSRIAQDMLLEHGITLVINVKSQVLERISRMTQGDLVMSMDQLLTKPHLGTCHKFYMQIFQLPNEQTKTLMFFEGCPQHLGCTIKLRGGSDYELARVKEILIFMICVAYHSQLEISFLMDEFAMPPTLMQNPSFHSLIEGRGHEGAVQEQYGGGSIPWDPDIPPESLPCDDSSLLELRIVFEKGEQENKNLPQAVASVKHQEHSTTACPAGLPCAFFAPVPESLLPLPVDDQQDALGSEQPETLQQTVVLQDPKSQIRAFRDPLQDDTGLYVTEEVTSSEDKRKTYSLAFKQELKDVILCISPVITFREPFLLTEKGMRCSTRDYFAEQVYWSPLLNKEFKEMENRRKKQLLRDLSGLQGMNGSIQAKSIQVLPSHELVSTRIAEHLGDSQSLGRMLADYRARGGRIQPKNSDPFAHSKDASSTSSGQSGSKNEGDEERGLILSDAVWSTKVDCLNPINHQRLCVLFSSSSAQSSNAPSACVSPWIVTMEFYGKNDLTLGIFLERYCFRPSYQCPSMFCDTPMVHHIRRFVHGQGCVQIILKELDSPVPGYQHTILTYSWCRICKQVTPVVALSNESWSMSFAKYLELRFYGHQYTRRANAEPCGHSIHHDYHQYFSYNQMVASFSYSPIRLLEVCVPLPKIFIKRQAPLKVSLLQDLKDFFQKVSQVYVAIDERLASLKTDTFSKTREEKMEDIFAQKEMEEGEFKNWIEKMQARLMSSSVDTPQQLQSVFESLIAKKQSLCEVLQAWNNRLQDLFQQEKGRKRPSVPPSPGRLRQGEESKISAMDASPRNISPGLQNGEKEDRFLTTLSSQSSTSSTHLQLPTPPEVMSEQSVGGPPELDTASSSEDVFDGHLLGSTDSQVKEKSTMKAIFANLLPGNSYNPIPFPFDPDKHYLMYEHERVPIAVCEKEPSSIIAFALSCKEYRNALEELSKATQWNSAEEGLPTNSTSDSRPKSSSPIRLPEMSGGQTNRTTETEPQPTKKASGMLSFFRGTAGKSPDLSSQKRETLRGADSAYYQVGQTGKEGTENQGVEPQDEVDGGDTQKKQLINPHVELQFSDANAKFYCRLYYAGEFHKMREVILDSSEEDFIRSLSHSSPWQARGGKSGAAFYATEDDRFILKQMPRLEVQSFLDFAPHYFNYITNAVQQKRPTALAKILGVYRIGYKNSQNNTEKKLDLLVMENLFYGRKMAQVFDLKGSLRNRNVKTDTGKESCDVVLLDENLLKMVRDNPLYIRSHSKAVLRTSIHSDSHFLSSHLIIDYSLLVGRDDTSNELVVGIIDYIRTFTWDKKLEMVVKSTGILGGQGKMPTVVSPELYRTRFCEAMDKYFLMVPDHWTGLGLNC
row,SMILES,IC50 [nM]
1,"COc1cccc(-c2ccn(-c3cc(N4CC[C@H]5OCC[C@H]54)nc(OCC4CCCO4)n3)n2)c1 (stereo partly drawn) [Compound 1, (3aR,6aR)-4-(6-(3-(3-methoxyphenyl)-1H-pyrazol-1-yl)-2-((tetrahydrofuran-2-yl)methoxy)pyrimidin-4-yl)hexahydro-2H-furo[3,2-b]pyrrole]",5 to 100
2,"COc1cccc(-c2ccn(-c3cc(N4CCOCC4)nc(OCC4CCCO4)n3)n2)c1 (stereo not shown) [Compound 2, 4-(6-(3-(3-methoxyphenyl)-1H-pyrazol-1-yl)-2-((tetrahydrofuran-2-yl)methoxy)pyrimidin-4-yl)morpholine]",< 5
3,"COc1cccc(-c2ccn(-c3cc(N4CCOCC4)nc(OCCC4CCOCC4)n3)n2)c1 [Compound 3, 4-(6-(3-(3-methoxyphenyl)-1H-pyrazol-1-yl)-2-(2-(tetrahydro-2H-pyran-4-yl)ethoxy)pyrimidin-4-yl)morpholine]",< 5
4,"c1ccc(-c2ccn(-c3cc(N4CC[C@H]5OCC[C@H]54)nc(OCCc4ccccn4)n3)n2)cc1 [Compound 4, (3aR,6aR)-4-(6-(3-phenyl-1H-pyrazol-1-yl)-2-(2-(pyridin-2-yl)ethoxy)pyrimidin-4-yl)hexahydro-2H-furo[3,2-b]pyrrole]",101 to 1000
5,"COc1cccc(-c2ccn(-c3cc(N4CC[C@H]5OCC[C@H]54)nc(OCCO)n3)n2)c1 [Compound 5, 2-((4-((3aR,6aR)-hexahydro-4H-furo[3,2-b]pyrrol-4-yl)-6-(3-(3-methoxyphenyl)-1H-pyrazol-1-yl)pyrimidin-2-yl)oxy)ethan-1-ol]",101 to 1000
6,"COc1cccc(-c2ccn(-c3cc(N4CC[C@H]5OCC[C@H]54)nc(OCCc4scnc4C)n3)n2)c1 [Compound 6, (3aR,6aR)-4-(6-(3-(3-methoxyphenyl)-1H-pyrazol-1-yl)-2-(2-(4-methylthiazol-5-yl)ethoxy)pyrimidin-4-yl)hexahydro-2H-furo[3,2-b]pyrrole]",5 to 100
7,"COc1cccc(-c2ccn(-c3cc(N4CCOCC4)nc(OCCc4scnc4C)n3)n2)c1 [Compound 7, 4-(6-(3-(3-methoxyphenyl)-1H-pyrazol-1-yl)-2-(2-(4-methylthiazol-5-yl)ethoxy)pyrimidin-4-yl)morpholine]",< 5
8,"COc1cccc(-c2ccn(-c3cc(N4CC[C@H]5OCC[C@H]54)nc(OCCC(O)CO)n3)n2)c1 (stereo partly drawn) [Compound 8, 4-((4-((3aR,6aR)-hexahydro-4H-furo[3,2-b]pyrrol-4-yl)-6-(3-(3-methoxyphenyl)-1H-pyrazol-1-yl)pyrimidin-2-yl)oxy)butane-1,2-diol]",5 to 100
9,"COc1cccc(-c2ccn(-c3cc(N4CCOCC4)nc(OCCC(O)CO)n3)n2)c1 (stereo not shown) [Compound 9, 4-((4-(3-(3-methoxyphenyl)-1H-pyrazol-1-yl)-6-morpholinopyrimidin-2-yl)oxy)butane-1,2-diol]",< 5
10,"c1ccc(-c2cn(-c3cc(N4CCOCC4)nc(OCCc4ccccn4)n3)cn2)cc1 [Compound 10, 4-(6-(4-phenyl-1H-imidazol-1-yl)-2-(2-(pyridin-2-yl)ethoxy)pyrimidin-4-yl)morpholine]",1000 to 10000
11,"Cc1cccc(-c2csc(-c3cc(N4CC[C@H]5OCC[C@H]54)nc(OCC4CCCO4)n3)n2)c1 (stereo partly drawn) [Compound 11, (3aR,6aR)-4-(2-((tetrahydrofuran-2-yl)methoxy)-6-(4-(m-tolyl)thiazol-2-yl)pyrimidin-4-yl)hexahydro-2H-furo[3,2-b]pyrrole]",101 to 1000
12,"Cc1cccc(-c2csc(-c3cc(N4CCOCC4)nc(OCC4CCCO4)n3)n2)c1 (stereo not shown) [Compound 12, 4-(2-((tetrahydrofuran-2-yl)methoxy)-6-(4-(m-tolyl)thiazol-2-yl)pyrimidin-4-yl)morpholine]",5 to 100
13,"Cc1cccc(-n2ccc(-c3cc(N4CCOCC4)nc(OCC4CCCO4)n3)n2)c1 (stereo not shown) [Compound 13, 4-(2-((tetrahydrofuran-2-yl)methoxy)-6-(1-(m-tolyl)-1H-pyrazol-3-yl)pyrimidin-4-yl)morpholine]",5 to 100
14,"Cc1cccc(-c2ccn(-c3cc(N4CCCOCC4)nc(OCC4CCCO4)n3)n2)c1 (stereo not shown) [Compound 14, 4-(2-((tetrahydrofuran-2-yl)methoxy)-6-(3-(m-tolyl)-1H-pyrazol-1-yl)pyrimidin-4-yl)-1,4-oxazepane]",101 to 1000
15,"COC1CCN(c2cc(-n3ccc(-c4cccc(C)c4)n3)nc(OCC3CCCO3)n2)C1 (stereo not shown) [Compound 15, 4-(3-methoxypyrrolidin-1-yl)-2-((tetrahydrofuran-2-yl)methoxy)-6-(3-(m-tolyl)-1H-pyrazol-1-yl)pyrimidine]",1000 to 10000
16,"COc1cccc(-c2ccn(-c3cc(N4CC[C@H]5OCC[C@H]54)nc(OCCc4ccccn4)n3)n2)c1 [Compound 16, (3aR,6aR)-4-(6-(3-(3-methoxyphenyl)-1H-pyrazol-1-yl)-2-(2-(pyridin-2-yl)ethoxy)pyrimidin-4-yl)hexahydro-2H-furo[3,2-b]pyrrole]",101 to 1000
17,"Cc1cccc(-c2ccn(-c3cc(C4CCOC4)nc(OCC4CCCO4)n3)n2)c1 (stereo not shown) [Compound 17, 2-((tetrahydrofuran-2-yl)methoxy)-4-(tetrahydrofuran-3-yl)-6-(3-(m-tolyl)-1H-pyrazol-1-yl)pyrimidine]",5 to 100
18,Cc1cccc(-c2ccn(-c3cc(N4CC[C@H]5OCC[C@H]54)nc(CCc4ncccn4)n3)n2)c1 [Compound 19],5 to 100
19,"Cc1cccc(-c2ccn(-c3cc(N4CCOCC4CO)nc(CCC4CCCO4)n3)n2)c1 (stereo not shown) [Compound 20, (4-(2-(2-(tetrahydrofuran-2-yl)ethyl)-6-(3-(m-tolyl)-1H-pyrazol-1-yl)pyrimidin-4-yl)morpholin-3-yl)methanol]",5 to 100
